# Experimental data from patent US9012365B2, “Compatibility agents for herbicidal formulations comprising 2,4-(Dichlorophenoxy) acetic acid salts” (priority 2006, dated 2015).
# Values joined by “and” are separate entries in the source; they are usually repeats but may differ in a detail not shown here. Equal values may be shown once.
# Test: Appearance of 10 g solution of (2.5 wt % ai 2,4-D DMA + tested chemical) after adding 40% AMS
# Assay type: physicochemical
# Details: 2.5 wt % ai 2,4-D DMA; for Addition Weight of 40% AMS: System was clear after adding / Addition Weight of 40% AMS: System was cloud after adding: 10 g solution
# Method: In this example, the appearance of a 10 g solution of (2.5 wt % ai 2,4-D DMA+tested chemical) was evaluated after adding 40% AMS
# [1] = 0.13 wt % a.i. of tested chemical, 0 gram 40% AMS
# [2] = 0.13 wt % a.i. of tested chemical
# [3] = 1.25 wt % a.i. of tested chemical
# [4] = 0.05 wt % a.i. of tested chemical
# [5] = 0.04 wt % a.i. of tested chemical
Compound,0 gram Appearance [1],Addition Weight of 40% AMS: System was clear after adding [2],Addition Weight of 40% AMS: System was cloud after adding [2],also measured
Trideceth-6,Clear,0.47 grams,0.717 grams,–
Nonylphenol-9EO,Clear,0.473 grams,0.601 grams,–
Nonylphenol-4EO,cloudy,cloudy,0 grams,–
Cocoamine-5EO,Clear,1.478 grams,1.633 grams,–
Di (propylene glycol) methyl ether,Clear,0.665 grams,0.829 grams,–
Trideceth-10,Clear,0.557 grams,0.685 grams,–
Cocoamine-2EO oxide,Clear,–,0.096 grams,–
Tallow acid + triethanolamine + 10EO,Clear,2.087 grams,3.049 grams,–
Soya acid ethoxylate-10EO,Clear,0.482 grams,0.756 grams,–
Propyl glycosides,Clear,–,0.329 grams,–
CCCCCCCCCCCC[N+](C)(C)CC(=O)[O-] [Lauryldimethyl betaine],–,–,–,0 gram Appearance [3]: Clear; Addition Weight of 40% AMS: System was clear after adding [3]: 0.693 grams; Addition Weight of 40% AMS: System was cloud after adding [3]: 0.913 grams
Tristyrylphenol + 15EO,Clear,2.102 grams,2.509 grams,–
Triethyl ammonium phosphate,–,–,–,0 gram Appearance [3]: Clear; Addition Weight of 40% AMS: System was clear after adding [3]: 0.303 grams; Addition Weight of 40% AMS: System was cloud after adding [3]: 0.535 grams
Tallowamine-2EO,Clear,1.31 grams,1.513 grams,–
Cocodimethylamidopropylamine,Clear,1.488 grams,1.731 grams,–
Tall oil fatty acid-4EO,very cloudy,very cloudy,0 grams,–
Tallowamine-14EO,Clear,1.273 grams,1.526 grams,–
C10-12 alcohol ethoxylate (7EO),Clear,0.829 grams and 0.903 grams,1.033 grams and 1.026 grams,–
Sodium lauryl olefin sulfonate,Clear,1.896 grams,2.546 grams,0 gram Appearance [4]: Clear; Addition Weight of 40% AMS: System was clear after adding [4]: 1.526 grams; Addition Weight of 40% AMS: System was cloud after adding [4]: 2.121 grams
Na Cocoamphocarboxyglycinate,–,–,–,0 gram Appearance [3]: Clear; Addition Weight of 40% AMS: System was clear after adding [3]: 0.25 grams; Addition Weight of 40% AMS: System was cloud after adding [3]: 0.508 grams
2-propylheptanol-8EO,Clear,0.43 grams,0.526 grams,–
Tristyrylphenol + 16EO,Clear,1.084 grams,2.235 grams,–
Polyoxyethylene Sorbitol Tallate,Clear,0.661 grams,0.71 grams,–
2-ethylhexyl glycoside,Clear,–,0.226 grams,–
Trideceth-12,Clear,0.581 grams,0.688 grams,–
Phenol ethoxylate,Clear,–,0.577 grams,–
CCCCCCCCCCCCOS(=O)(=O)[O-].[Na+] [Sodium lauryl sulfate],–,–,–,0 gram Appearance [5]: Clear; Addition Weight of 40% AMS: System was cloud after adding [5]: 0.101 grams

Compound,0 gram Appearance [1],Addition Weight of 40% AMS: System was clear after adding [2],Addition Weight of 40% AMS: System was cloud after adding [2],also measured
Cocamide DEA,Clear,0.701 grams,0.987 grams,–
Coco duoamine-3EO,Clear,3.521 grams,4.058 grams,–
Iso C13 etheramine-5EO,Clear,1.732 grams,2.045 grams,–
C10-12 alcohol ethoxylate (9EO),Clear,0.519 grams,0.72 grams,–
C10-12 alcohol ethoxylate (12EO),Clear,0.619 grams,0.669 grams,–
C8-10 glycosides [AG 6210],Clear,1 grams,1.212 grams,–
C6-10 isopropylamine alcohol ether sulfate,Clear,0.528 grams,0.712 grams,–
Trideceth-4,cloudy,cloudy,0 grams,–
"CCCCOCCOC(C)=O [Butyl cellosolve Acetate (C4—O—C—C—OOCC), Butyl cellosolve Acetate]",Clear,0.162 grams,0.324 grams,–
Sodium xylene sulfonate,Clear,–,0.524 grams,–
C8-10 + 4 EO phosphate ester (acid),Clear,–,0.488 grams,–
C9-C11 glycoside,Clear,–,0.272 grams,–
Cocotrimethyl Chloride,Clear,2.038 grams,2.123 grams,–
Trideceth-8,Clear,0.458 grams,0.684 grams,–
Nonylphenol-12EO,Clear,0.415 grams,0.502 grams,–
Cocoamine-10EO,Clear,1.454 grams,1.541 grams,–
Tallowamine-6EO,Clear,1.485 grams,1.751 grams,–
Nonylphenol-9EO carboxylate,Clear,1.312 grams,1.692 grams,–
Oleylamphopolycarboxyglycinate,Clear,0.261 grams,0.459 grams,–
Tallowamine-15EO methylchloride,Clear,1.731 grams,2.014 grams,–
Tall oil fatty acid amidoamine-10EO,Clear,1.591 grams,2.243 grams,–
Nonylphenol-6EO (5EO),Hazy,Hazy,0 grams,–
C11 alcohol ethoxylate (5EO),Clear,0.819 grams,0.918 grams,–
Octyliminodipropionate,–,–,–,0 gram Appearance [3]: Clear; Addition Weight of 40% AMS: System was clear after adding [3]: 0.283 grams; Addition Weight of 40% AMS: System was cloud after adding [3]: 0.602 grams
Castor oil ethoxylate,very cloudy,very cloudy,0 grams,–
Alkyl ether citrate,Clear,–,0.509 grams,–
C8-10 glycosides [Agnique PG 8166],Clear,–,0.217 grams,–
